According to ChEMBL document CHEMBL1681675, “3,5-diarylazoles as novel and selective inhibitors of protein kinase D” (Bioorg Med Chem Lett, 2011):
Values after ≈ are worked out from the molar mass of the structure shown.

experiment: Solubility of the compound; assay type: physicochemical; settings: not given

Compound | solubility [µM]
C[C@H](C#N)NC(=O)c1cccc(-c2cc(-c3ccc(N4CCN(C)CC4)cc3)on2)c1 | < 10
CC(C)NC(=O)c1cccc(-c2cc(-c3ccc(CNCC(F)(F)F)cc3)[nH]n2)c1 | < 10
CN1CCN(c2ccc(-c3cc(-c4cccc(C(=O)NCCC#N)c4)n[nH]3)cc2)CC1 | 650 (≈ 269 µg/mL)
C[C@@H](C#N)NC(=O)c1cccc(-c2cc(-c3ccc(N4CCN(C)CC4)cc3)on2)c1 | < 10
CN1CCN(c2ccc(-c3cc(-c4cccc(C(=O)NCC#N)c4)n[nH]3)cc2)CC1 | 50 (≈ 20 µg/mL)
CCCNC(=O)c1cccc(-c2cc(-c3ccc(N4CCN(C)CC4)cc3)[nH]n2)c1 | 330 (≈ 133 µg/mL)
C[C@@H](C#N)NC(=O)c1cccc(-c2cc(-c3ccc(CNC4CCOCC4)cc3)on2)c1 | 110 (≈ 47.4 µg/mL)
CC(C)NC(=O)c1cccc(-c2cc(-c3ccc(N4CCN(C)CC4)c(-c4ccncc4)c3)[nH]n2)c1 | < 10
COCCNCc1ccc(-c2cc(-c3cccc(C(=O)NC(C)C)c3)n[nH]2)cc1 | 910 (≈ 357 µg/mL)
CC(C)NC(=O)c1cccc(-c2cc(-c3ccc(N4CCN(C)CC4)c(Br)c3)[nH]n2)c1 | 40 (≈ 19.3 µg/mL)
CC(C)NC(=O)c1cccc(-c2cc(-c3ccc(CNC4CCOCC4)cc3)on2)c1 | 140 (≈ 58.7 µg/mL)
CC(C)NCc1ccc(-c2cc(-c3cccc(C(=O)N[C@H](C)C#N)c3)[nH]n2)cc1 | > 990
N#CCNC(=O)c1cccc(-c2cc(-c3ccc(CNC4CCOCC4)cc3)on2)c1 | 170 (≈ 70.8 µg/mL)
CC(C)NC(=O)c1cccc(-c2cc(-c3ccc(N4CCN(C)CC4)c(-c4ccccc4)c3)[nH]n2)c1 | < 10
CC(C)(C#N)NC(=O)c1cccc(-c2cc(-c3ccc(CNC4CCOCC4)cc3)on2)c1 | 70 (≈ 31.1 µg/mL)
CN1CCN(c2ccc(-c3cc(-c4cccc(C(=O)NCC#N)c4)n[nH]3)cc2Br)CC1 | < 10
CN(C)CCNC(=O)c1cccc(-c2cc(-c3ccc(N4CCN(C)CC4)cc3)[nH]n2)c1 | > 960
CC(C)NC(=O)c1cccc(-c2cc(-c3ccc(CNC4CC4)cc3)[nH]n2)c1 | 220 (≈ 82.4 µg/mL)
CN1CCN(c2ccc(-c3cc(-c4cccc(C(=O)NCC#N)c4)no3)cc2)CC1 | < 10
CN1CCN(c2ccc(-c3cc(-c4cccc(C(=O)NCC(F)(F)F)c4)n[nH]3)cc2)CC1 | 170 (≈ 75.4 µg/mL)
CC(C)NCc1ccc(-c2cc(-c3cccc(C(=O)N[C@H](C)C#N)c3)no2)cc1 | > 870
CC(C)NC(=O)c1cccc(-c2cc(-c3ccc(N4CCN(C)CC4)cc3)[nH]n2)c1 | 270 (≈ 109 µg/mL)
CC(C)NCc1ccc(-c2cc(-c3cccc(C(=O)NC(C)C)c3)[nH]n2)cc1 | > 970
C[C@H](C#N)NC(=O)c1cccc(-c2cc(-c3ccc(CNC4CCOCC4)cc3)on2)c1 | 240 (≈ 103 µg/mL)
COCCNC(=O)c1cccc(-c2cc(-c3ccc(N4CCN(C)CC4)cc3)[nH]n2)c1 | 760 (≈ 319 µg/mL)
CN1CCN(c2ccc(-c3cc(-c4cccc(C(=O)NCCO)c4)n[nH]3)cc2)CC1 | 170 (≈ 68.9 µg/mL)

experiment: Volume of distribution at steady state in Sprague-Dawley rat at 2 mg/kg, iv or 5 mg/kg, po; assay type: ADME, organism-based; settings: in vivo, read-out: Vdss

Compound | Vd [L/kg]
C[C@H](C#N)NC(=O)c1cccc(-c2cc(-c3ccc(CNC4CCOCC4)cc3)on2)c1 | 6

experiment: Oral bioavailability in Sprague-Dawley rat at 5 mg/kg; assay type: ADME, organism-based; settings: in vivo

Compound | bioavailability [%]
C[C@H](C#N)NC(=O)c1cccc(-c2cc(-c3ccc(CNC4CCOCC4)cc3)on2)c1 | 38

experiment: AUC (0 to 8 hrs) in Sprague-Dawley rat at 2 mg/kg, iv or 5 mg/kg, po; assay type: ADME, organism-based; settings: plasma

Compound | AUC(0-t) [µM·h]
C[C@H](C#N)NC(=O)c1cccc(-c2cc(-c3ccc(CNC4CCOCC4)cc3)on2)c1 | 0.84
